Measured values as given in US20230151049A1, “Compounds Useful in HIV Therapy” (priority 2020, published 2023).
Values joined by “and” are separate entries in the source; they are usually repeats but may differ in a detail not shown here. Equal values may be shown once. Read-outs that look alike come from different tables or passages of the source.

Test: EFdA Rat PK Studies (subcutaneous and intramuscular groups), plasma concentration by LC-MS/MS
Format: in vivo, Wistar Han rats
Conditions: for Assayed Concentrations of EFdA, individual rats / Assayed Concentrations of EFdA, Mean / concentration at 0.5 h / concentration at 1 h / concentration at 4 h / concentration at 7 h / concentration at 24 h / concentration at 48 h / concentration at 72 h / concentration at 6 day / concentration at 25 day: plasma; for concentration at 0.5 h / concentration at 1 h / concentration at 4 h / concentration at 7 h / concentration at 24 h / concentration at 48 h / concentration at 72 h / concentration at 6 day / concentration at 25 day: male, Wistar Han, rat
Source text: Protocol for EFdA Rat PK Studies Conducted at Charles River Laboratories, NY.
A total of seven naïve male Wistar Han rats, 200-250 g, were received from Charles River Laboratories, Kingston, N.Y. All animals were received from the supplier equipped with a surgically-implanted jugular vein catheter (JVC) for blood sample collection. Following an acclimation period, the animals were assigned to the study based on acceptable health as determined by a staff veterinarian and catheter patency. Animals were placed into two groups of 3 rats per group. Fasting of the animals before or after dosing was not required.
On Day 1 each animal in Group 1 received a single subcutaneous injection of prepared test article at a target dose level of 20 mg/kg and at a dose volume of 0.33 mL/kg. Each animal in Group 2 received a single intramuscular injection of prepared test article into a thigh muscle at a target dose level of 20 mg/kg and at a dose volume of 0.33 mL/kg. The injection sites were shaved prior to dosing and identified with an indelible marker for daily monitoring during the study. The animals were manually restrained for dosing and were not sedated. The dose suspension was mixed well by inversion before each dose to ensure homogeneity. All dosing was performed as detailed in the study protocol and was completed without incident. […] In addition, all animals are monitored twice daily by the veterinary staff for clinical abnormalities.
Blood samples were collected from the study animals as detailed in the sample collection Table 2 below.
Each blood sample for PK (250 μL) was collected from the jugular vein catheter or by venipuncture of a jugular vein. The blood was transferred to a tube containing NaF/Na2EDTA anticoagulant and inverted several times to mix. The blood samples were maintained on crushed ice before centrifugation at 2200×g for 10 minutes at 5° C. to isolate plasma. The resulting plasma samples were transferred to individual polypropylene tubes in a 96-well plate format and immediately placed on dry ice until storage at nominally −80° C. prior to analysis.
The PK plasma samples were analyzed by the Testing Facility to determine the concentration of EFdA using an LC-MS/MS Research Grade Assay (RGA-1) with sensitivity to 0.1 ng/mL. Following review of sample analysis data through Day 29, further sample analysis was discontinued and the study was terminated. The individual and mean plasma concentration-time data are presented in Tables 3 and 4 and mean concentration-time profiles are shown in FIGS. 1 and 2.

Assayed Concentrations of EFdA, individual rats (0.5 hr, IM 20 mg/kg): 1150 ng/mL and 684 ng/mL
Assayed Concentrations of EFdA, individual rats (0.5 hr, SC 20 mg/kg, 20 mg/kg): 1000 ng/mL and 640 ng/mL and 2210 ng/mL
Assayed Concentrations of EFdA, individual rats (1 hr, IM 20 mg/kg): 1640 ng/mL and 1400 ng/mL
Assayed Concentrations of EFdA, individual rats (1 hr, SC 20 mg/kg, 20 mg/kg): 1160 ng/mL and 1040 ng/mL and 3030 ng/mL
Assayed Concentrations of EFdA, individual rats (4 hr, IM 20 mg/kg): 436 ng/mL and 733 ng/mL
Assayed Concentrations of EFdA, individual rats (4 hr, SC 20 mg/kg, 20 mg/kg): 676 ng/mL and 708 ng/mL
Assayed Concentrations of EFdA, individual rats (7 hr, IM 20 mg/kg): 241 ng/mL and 191 ng/mL and 426 ng/mL
Assayed Concentrations of EFdA, individual rats (7 hr, SC 20 mg/kg, 20 mg/kg): 372 ng/mL and 216 ng/mL
Assayed Concentrations of EFdA, individual rats (24 hr, IM 20 mg/kg): 24.7 ng/mL and 1.96 ng/mL and 32.6 ng/mL
Assayed Concentrations of EFdA, individual rats (24 hr, SC 20 mg/kg, 20 mg/kg): 6.70 ng/mL and 14.7 ng/mL and 2.53 ng/mL
Assayed Concentrations of EFdA, individual rats (48 hr, SC 20 mg/kg, 20 mg/kg): 0.713 ng/mL and 0.543 ng/mL
Assayed Concentrations of EFdA, individual rats (72 hr, IM 20 mg/kg): 0.316 ng/mL and 0.241 ng/mL
Assayed Concentrations of EFdA, individual rats (72 hr, SC 20 mg/kg, 20 mg/kg): 0.270 ng/mL and 0.201 ng/mL
concentration at 0.5 h (intramuscular, 20 mg/kg, 0.5 hr, IM 20 mg/kg, read-out: Assayed Concentrations of EFdA, Mean): 921 ng/mL
concentration at 0.5 h (intramuscular, 20 mg/kg, 0.5 hr, IM 20 mg/kg, read-out: Assayed Concentrations of EFdA, individual rats): 929 ng/mL
concentration at 1 h (intramuscular, 20 mg/kg, 1 hr, IM 20 mg/kg, read-out: Assayed Concentrations of EFdA, Mean): 1330 ng/mL
concentration at 1 h (intramuscular, 20 mg/kg, 1 hr, IM 20 mg/kg, read-out: Assayed Concentrations of EFdA, individual rats): 957 ng/mL
concentration at 4 h (intramuscular, 20 mg/kg, 4 hr, IM 20 mg/kg, read-out: Assayed Concentrations of EFdA, Mean): 610 ng/mL
concentration at 4 h (intramuscular, 20 mg/kg, 4 hr, IM 20 mg/kg, read-out: Assayed Concentrations of EFdA, individual rats): 662 ng/mL
concentration at 7 h (intramuscular, 20 mg/kg, 7 hr, IM 20 mg/kg, read-out: Assayed Concentrations of EFdA, Mean): 286 ng/mL
concentration at 24 h (intramuscular, 20 mg/kg, 24 hr, IM 20 mg/kg, read-out: Assayed Concentrations of EFdA, Mean): 19.8 ng/mL
concentration at 48 h (intramuscular, 20 mg/kg, 48 hr, IM 20 mg/kg, read-out: Assayed Concentrations of EFdA, Mean): 2.18 ng/mL
concentration at 72 h (intramuscular, 20 mg/kg, 72 hr, IM 20 mg/kg, read-out: Assayed Concentrations of EFdA, Mean): 0.29 ng/mL
concentration at 72 h (intramuscular, 20 mg/kg, 72 hr, IM 20 mg/kg, read-out: Assayed Concentrations of EFdA, individual rats): 0.301 ng/mL
concentration at 6 day (intramuscular, 20 mg/kg, Day 6, IM 20 mg/kg, read-out: Assayed Concentrations of EFdA, Mean): 0.1 ng/mL
concentration at 6 day (intramuscular, 20 mg/kg, Day 6, IM 20 mg/kg, read-out: Assayed Concentrations of EFdA, individual rats): 0.102 ng/mL
concentration at 0.5 h (sc, 20 mg/kg, 0.5 hr, SC 20 mg/kg, read-out: Assayed Concentrations of EFdA, Mean): 1280 ng/mL
concentration at 1 h (sc, 20 mg/kg, 1 hr, SC 20 mg/kg, read-out: Assayed Concentrations of EFdA, Mean): 1430 ng/mL
concentration at 4 h (sc, 20 mg/kg, 4 hr, SC 20 mg/kg, read-out: Assayed Concentrations of EFdA, Mean): 639 ng/mL
concentration at 4 h (sc, 20 mg/kg, 4 hr, SC 20 mg/kg, read-out: Assayed Concentrations of EFdA, individual rats): 534 ng/mL
concentration at 7 h (sc, 20 mg/kg, 7 hr, SC 20 mg/kg, read-out: Assayed Concentrations of EFdA, Mean): 303 ng/mL
concentration at 7 h (sc, 20 mg/kg, 7 hr, SC 20 mg/kg, read-out: Assayed Concentrations of EFdA, individual rats): 320 ng/mL
concentration at 24 h (sc, 20 mg/kg, 24 hr, SC 20 mg/kg, read-out: Assayed Concentrations of EFdA, Mean): 7.98 ng/mL
concentration at 48 h (sc, 20 mg/kg, 48 hr, SC 20 mg/kg, read-out: Assayed Concentrations of EFdA, Mean): 0.68 ng/mL
concentration at 48 h (sc, 20 mg/kg, 48 hr, SC 20 mg/kg, read-out: Assayed Concentrations of EFdA, individual rats): 0.771 ng/mL
concentration at 72 h (sc, 20 mg/kg, 72 hr, SC 20 mg/kg, read-out: Assayed Concentrations of EFdA, Mean): 0.241 ng/mL
concentration at 72 h (sc, 20 mg/kg, 72 hr, SC 20 mg/kg, read-out: Assayed Concentrations of EFdA, individual rats): 0.251 ng/mL
concentration at 6 day (sc, 20 mg/kg, Day 6, SC 20 mg/kg, read-out: Assayed Concentrations of EFdA, Mean): 0.04 ng/mL
concentration at 6 day (sc, 20 mg/kg, Day 6, SC 20 mg/kg, read-out: Assayed Concentrations of EFdA, individual rats): 0.117 ng/mL
concentration at 25 day (sc, 20 mg/kg, Day 25, SC 20 mg/kg, read-out: Assayed Concentrations of EFdA, Mean): 0.221 ng/mL
concentration at 25 day (sc, 20 mg/kg, Day 25, SC 20 mg/kg, read-out: Assayed Concentrations of EFdA, individual rats): 0.221 ng/mL
detectable duration of exposure of EFdA (rat IM and SC administration of 20 mg/kg): less than 8 days
Structure (SMILES): C#C[C@]1(CO)O[C@@H](n2cnc3c(N)nc(F)nc32)C[C@@H]1O [EFdA, (2R,3S,5R)-5-(6-amino-2-fluoro-9H-purin-9-yl)-2-ethynyl-2-(hydroxymethyl)tetrahydrofuran-3-ol]
Assayed Concentrations of EFdA, individual rats (48 hr, IM 20 mg/kg): 5.25 ng/mL and 0.369 ng/mL and 0.915 ng/mL
Assayed Concentrations of EFdA, individual rats (Day 6, IM 20 mg/kg): BQL (BQL—Below Quantitation Limit, <0.100 ng/mL) and 0.103 ng/mL
Assayed Concentrations of EFdA, individual rats (Day 6, SC 20 mg/kg, 20 mg/kg): BQL (BQL—Below Quantitation Limit, <0.100 ng/mL)
Assayed Concentrations of EFdA, Mean (Day 8, IM 20 mg/kg): BQL (BQL—Below Quantitation Limit, <0.100 ng/mL)
Assayed Concentrations of EFdA, individual rats (Day 8, IM 20 mg/kg): BQL (BQL—Below Quantitation Limit, <0.100 ng/mL)
Assayed Concentrations of EFdA, Mean (Day 8, SC 20 mg/kg): BQL (BQL—Below Quantitation Limit, <0.100 ng/mL)
Assayed Concentrations of EFdA, individual rats (Day 8, SC 20 mg/kg): BQL (BQL—Below Quantitation Limit, <0.100 ng/mL)
Assayed Concentrations of EFdA, Mean (Day 11, IM 20 mg/kg): BQL (BQL—Below Quantitation Limit, <0.100 ng/mL)
Assayed Concentrations of EFdA, individual rats (Day 11, IM 20 mg/kg): BQL (BQL—Below Quantitation Limit, <0.100 ng/mL)
Assayed Concentrations of EFdA, Mean (Day 11, SC 20 mg/kg): BQL (BQL—Below Quantitation Limit, <0.100 ng/mL)
Assayed Concentrations of EFdA, individual rats (Day 11, SC 20 mg/kg): BQL (BQL—Below Quantitation Limit, <0.100 ng/mL)
Assayed Concentrations of EFdA, Mean (Day 15, IM 20 mg/kg): BQL (BQL—Below Quantitation Limit, <0.100 ng/mL)
Assayed Concentrations of EFdA, individual rats (Day 15, IM 20 mg/kg): BQL (BQL—Below Quantitation Limit, <0.100 ng/mL)
Assayed Concentrations of EFdA, Mean (Day 15, SC 20 mg/kg): BQL (BQL—Below Quantitation Limit, <0.100 ng/mL)
Assayed Concentrations of EFdA, individual rats (Day 15, SC 20 mg/kg): BQL (BQL—Below Quantitation Limit, <0.100 ng/mL)
Assayed Concentrations of EFdA, Mean (Day 22, IM 20 mg/kg): BQL (BQL—Below Quantitation Limit, <0.100 ng/mL)
Assayed Concentrations of EFdA, individual rats (Day 22, IM 20 mg/kg): BQL (BQL—Below Quantitation Limit, <0.100 ng/mL)
Assayed Concentrations of EFdA, Mean (Day 22, SC 20 mg/kg): BQL (BQL—Below Quantitation Limit, <0.100 ng/mL)
Assayed Concentrations of EFdA, individual rats (Day 22, SC 20 mg/kg): BQL (BQL—Below Quantitation Limit, <0.100 ng/mL)
Assayed Concentrations of EFdA, Mean (Day 25, IM 20 mg/kg): BQL (BQL—Below Quantitation Limit, <0.100 ng/mL)
Assayed Concentrations of EFdA, individual rats (Day 25, IM 20 mg/kg): BQL (BQL—Below Quantitation Limit, <0.100 ng/mL)
Assayed Concentrations of EFdA, individual rats (Day 25, SC 20 mg/kg, 20 mg/kg): BQL (BQL—Below Quantitation Limit, <0.100 ng/mL)
Assayed Concentrations of EFdA, Mean (Day 29, IM 20 mg/kg): BQL (BQL—Below Quantitation Limit, <0.100 ng/mL)
Assayed Concentrations of EFdA, individual rats (Day 29, IM 20 mg/kg): BQL (BQL—Below Quantitation Limit, <0.100 ng/mL)
Assayed Concentrations of EFdA, Mean (Day 29, SC 20 mg/kg): BQL (BQL—Below Quantitation Limit, <0.100 ng/mL)
Assayed Concentrations of EFdA, individual rats (Day 29, SC 20 mg/kg): BQL (BQL—Below Quantitation Limit, <0.100 ng/mL)
